According to patent US8309726B2, “Substituted piperazine compounds of formula 8” (Council of Scientific & Industrial Research, priority 2007, dated 2012):
Where two headings read alike, the source gives them in different places.

Legend:
Breast cancer cell lines = test: In vitro cytotoxicity, breast panel; format: cell-based; settings: Homo sapiens, average of six to nine different cancer cell lines, 48 h, SRB, read-out: Log GI50 (concentration in mol/L causing 50% growth inhibition) (converted)
Method: (§1) In vitro evaluation of cytotoxic activity: Compounds were evaluated for in vitro anticancer activity against sixty human tumour cells derived from nine cancer types (colon, prostate, oral, lung, cervix and breast cancer) as shown in (Table 1, 2 and 3) 8b, 8c, 8d, and 8e, were evaluated for in vitro anticancer activity against sixty human tumour cells derived from nine cancer types (leukemia, non-small-cell lung, colon, CNS, melanoma, ovarian, prostate, and breast cancer) as shown in (Table 2 and 3). For the compound, dose response curves for each cell line were measured at a minimum of five concentrations at 10 fold dilutions. A protocol of 48 h continuous drug exposure was used and a sulforhodamine B (SRB) protein assay was used to estimate cell viability or growth. The concentration causing 50% cell growth inhibition (GI50), total cell growth inhibition (TGI 0% growth) and 50% cell death (LC50, −50% growth) compared with the control was calculated. The mean graph midpoint values of log10 TGI and log10 LC50 as well as log10 GI50 for 8a, 8b, 8c, 8d, and 8e, are listed in (Table 2 and 3).
(§2) Each cancer type represents the average of six to nine different cancer cell lines. The compounds 8a, 8b, 8c, 8d, 8e and 8f were evaluated for in vitro anticancer activity against sixty human tumour cells derived from nine cancer types (leukemia, colon, prostate, renal melanoma CNS, lung, cervix and breast cancer) as shown in Table 3. Compounds 8b, 8c, 8d and 8e show promising cytotoxicity against some cancer cell lines (Table 2). Compounds 8b, 8c, 8d and 8e have been evaluated for their in vitro cytotoxicity in selected human cancer cell lines of colon (Colo205), lung (Hop-62), cervix (SiHa), prostate (DU145, PC3), oral (DWD, HT1080), and breast (MCF7, Zr-75-1) origin. A protocol of 48 h continuous drug exposure has been used and an […] has been used to estimate cell viability or growth. The results are expressed as percent of cell growth determined relative to that of untreated control cells. […] In the breast cancer panel, the growth of BT-549, MCF-7 cell lines are 10.3, and 17.6. In the prostate cancer panel, the growth of DU-145, PC-3 cell lines are 11.3, and 19.2. The GI50 values of compound In the CNS cancer panel, the growth of SF-539, SNB-75 cell lines are […]. […] In vitro cytotoxicity of compounds 8a, and 8b in selected cancer cell lines has been illustrated in Table 3. The average GI50 values for each cancer panel of compounds 8b, 8c, 8d and 8e have been illustrated in above Table 2 and 3

[1] = tested on: BT-549 cell line (breast cancer); test: In vitro cytotoxicity, BT-549; format: cell-based; settings: Homo sapiens; BT-549, breast cancer panel; unit inferred; read-out: growth (GI50)
Method: (§3) In vitro evaluation of cytotoxic activity: Compounds were evaluated for in vitro anticancer activity against sixty human tumour cells derived from nine cancer types (colon, prostate, oral, lung, cervix and breast cancer) as shown in (Table 1, 2 and 3) 8b, 8c, 8d, and 8e, were evaluated for in vitro anticancer activity against sixty human tumour cells derived from nine cancer types (leukemia, non-small-cell lung, colon, CNS, melanoma, ovarian, prostate, and breast cancer) as shown in (Table 2 and 3). For the compound, dose response curves for each cell line were measured at a minimum of five concentrations at 10 fold dilutions. […]
(§4) Each cancer type represents the average of six to nine different cancer cell lines. The compounds 8a, 8b, 8c, 8d, 8e and 8f were evaluated for in vitro anticancer activity against sixty human tumour cells derived from nine cancer types (leukemia, colon, prostate, renal melanoma CNS, lung, cervix and breast cancer) as shown in Table 3. […] Compounds 8b, 8c, 8d and 8e have been evaluated for their in vitro cytotoxicity in selected human cancer cell lines of colon (Colo205), lung (Hop-62), cervix (SiHa), prostate (DU145, PC3), oral (DWD, HT1080), and breast (MCF7, Zr-75-1) origin. […] The results are expressed as percent of cell growth determined relative to that of untreated control cells. […]

Renal cancer cell lines = test: In vitro cytotoxicity, renal panel; format: cell-based; settings: Homo sapiens, average of six to nine different cancer cell lines, 48 h, SRB, read-out: Log GI50 (concentration in mol/L causing 50% growth inhibition) (converted)
Method: as §1, §2

Colon cancer cell lines = test: In vitro cytotoxicity, colon panel; format: cell-based; settings: Homo sapiens, average of six to nine different cancer cell lines, 48 h, SRB, read-out: Log GI50 (concentration in mol/L causing 50% growth inhibition) (converted)
Method: as §1, §2

[2] = tested on: Ovarian cancer cell lines; test: In vitro cytotoxicity, ovarian panel; format: cell-based; settings: Homo sapiens, average of six to nine different cancer cell lines, 48 h, SRB, read-out: Log GI50 (concentration in mol/L causing 50% growth inhibition) (converted)
Method: as §1, §2

[3] = tested on: Nonsmall-cell-lung cancer cell lines; test: In vitro cytotoxicity, non-small-cell lung panel; format: cell-based; settings: Homo sapiens, average of six to nine different cancer cell lines, 48 h, SRB, read-out: Log GI50 (concentration in mol/L causing 50% growth inhibition) (converted)
Method: as §1, §2

CNS cancer cell lines = test: In vitro cytotoxicity, CNS panel; format: cell-based; settings: Homo sapiens, average of six to nine different cancer cell lines, 48 h, SRB, read-out: Log GI50 (concentration in mol/L causing 50% growth inhibition) (converted)
Method: as §1, §2

[4] = tested on: Prostate cancer cell lines; test: In vitro cytotoxicity, prostate panel; format: cell-based; settings: Homo sapiens, average of six to nine different cancer cell lines, 48 h, SRB, read-out: Log GI50 (concentration in mol/L causing 50% growth inhibition) (converted)
Method: as §1, §2

[5] = tested on: Leukemia cancer cell lines; test: In vitro cytotoxicity, leukemia panel; format: cell-based; settings: Homo sapiens, average of six to nine different cancer cell lines, 48 h, SRB, read-out: Log GI50 (concentration in mol/L causing 50% growth inhibition) (converted)
Method: as §1, §2

[6] = tested on: PC-3 cell line (prostate cancer); test: In vitro cytotoxicity, PC-3; format: cell-based; settings: Homo sapiens; PC-3, prostate cancer panel; unit inferred; read-out: growth (GI50)
Method: as §3, §4

[7] = tested on: MCF-7 cell line (breast cancer); test: In vitro cytotoxicity, MCF-7; format: cell-based; settings: Homo sapiens, MCF7
Method: as §3, §4

[8] = tested on: Melanoma cancer cell lines; test: In vitro cytotoxicity, melanoma panel; format: cell-based; settings: Homo sapiens, average of six to nine different cancer cell lines, 48 h, SRB, read-out: Log GI50 (concentration in mol/L causing 50% growth inhibition) (converted)
Method: as §1, §2

[9] = tested on: NCI-H226 cell line (non-small cell lung cancer); test: In vitro cytotoxicity, NCI-H226; format: cell-based; settings: Homo sapiens; NCI-H226, non-small cell lung cancer panel
Method: as §3, §4

human tumour cell lines = test: In vitro anticancer activity against sixty human tumour cell lines (NCI, SRB assay); format: cell-based; settings: for Log10LC50 mean graph midpoint (MG_MID): 50% cell death; for Log10LC50 mean graph midpoint (MG_MID) / Log10GI50 mean graph midpoint (MG_MID) / Log10TGI50 mean graph midpoint (MG_MID): 48 h continuous drug exposure, SRB assay; for Log10GI50 mean graph midpoint (MG_MID): 50% cell growth inhibition; for GI50: Homo sapiens; for antiproliferative activity: against most of the tested cell lines; for Log10TGI50 mean graph midpoint (MG_MID): total cell growth inhibition
Method: as §1, §2

calf thymus (CT) DNA = test: Thermal denaturation studies with duplex-form calf thymus DNA; format: binding; settings: for ΔTm (° C.) after incubation at 37° C. for 0 h / ΔTm (° C.) after incubation at 37° C. for 18 h / ΔTm (° C.) after incubation at 37° C. for 36 h: [ANCD]/[DNA] molar ratio 1:5, CT-DNA 100 μM, ligand 20 μM, sodium phosphate buffer pH 7.00; for ΔTm (° C.) after incubation at 37° C. for 0 h: 0 h at 37° C.; for ΔTm (° C.) after incubation at 37° C. for 18 h: 18 h at 37° C.; for ΔTm (° C.) after incubation at 37° C. for 36 h: 36 h at 37° C.; for Course of ΔTm over incubation at 0 hr, 18 hr and 36 hr: incubation at 37° C., [ANCD]/[DNA] 1:5
Method: Compounds were subjected to thermal denaturation studies with duplex-form calf thymus DNA (CT-DNA) using an adaptation of a reported procedure. Working solutions in aqueous buffer (10 mM NaH2PO4/Na2HPO4, 1 mM Na2EDTA, pH 7.00+/−0.01) containing CT-DNA (100 μM in phosphate) and the PBD (20 μM) were prepared by addition of concentrated ANCD solutions in DMSO to obtain a fixed [ANCD]/[DNA] molar ratio of 1:5. The DNA-ANCD solutions were incubated at 37° C. for 0, 18, and 36 h prior to analysis. Samples were monitored at 260 nm using a Beckman DU-7400 spectrophotometer fitted with high performance temperature controller, and heating was applied at 1° C. min^−1 in the 40-90° C. range. DNA helix coil transition temperatures (Tm) were obtained from the maxima in the (dA260)/dT derivative plots. Results are given as the mean+/−standard deviation from three determinations and are corrected for the effects of DMSO co-solvent using a linear correction term. Drug-induced alterations in DNA melting behaviour are given by: ΔTm=Tm (DNA+ANCD)−Tm (DNA alone), where the Tm value for the ANCD-free CT-DNA is 69.0+/−0.01.

[10] = tested on: EKVX cell line (non-small cell lung cancer); test: In vitro cytotoxicity, EKVX; format: cell-based; settings: Homo sapiens, non-small cell lung cancer panel
Method: as §3, §4

HL-60 (TB) (leukemia) = test: In vitro cytotoxicity, HL-60 (TB); format: cell-based; settings: Homo sapiens, leukemia panel
Method: as §3, §4

[11] = tested on: DU-145 cell line (prostate cancer); test: In vitro cytotoxicity, DU-145; format: cell-based; settings: Homo sapiens; DU-145, prostate cancer panel; unit inferred; read-out: growth (GI50)
Method: as §3, §4

[12] = tested on: renal and prostate cancer panels; test: In vitro cytotoxicity, renal and prostate cancer panels; format: cell-based; settings: Homo sapiens; range over renal and prostate cancer panels
Method: as §3, §4

[13] = tested on: T47D cell line (breast cancer); test: In vitro cytotoxicity, T47D; format: cell-based; settings: Homo sapiens, breast cancer cell panel
Method: as §3, §4

[14] = tested on: KM12 cell line (colon cancer); test: In vitro cytotoxicity, KM12; format: cell-based; settings: Homo sapiens
Method: as §3, §4

[15] = tested on: CNS SF-295, SF-539, SNB-19 and SNB-75 cell lines; test: In vitro cytotoxicity, CNS cell lines SF-295, SF-539, SNB-19, SNB-75; format: cell-based; settings: Homo sapiens; range over CNS SF-295, SF-539, SNB-19 and SNB-75
Method: as §3, §4

[16] = tested on: HCT-116 cell line (colon cancer); test: In vitro cytotoxicity, HCT-116; format: cell-based; settings: Homo sapiens; colon cancer HCT-116
Method: as §3, §4

[17] = tested on: COLO 205 cell line (colon cancer); test: In vitro cytotoxicity, COLO 205; format: cell-based; settings: Homo sapiens; colon cancer COLO 205
Method: as §3, §4

Compound | GI50 (Breast cancer cell lines) [µM] | GI50 (Renal cancer cell lines) [µM] | GI50 (Colon cancer cell lines) [µM] | GI50 [2] [µM] | GI50 [3] [µM] | GI50 (CNS cancer cell lines) [µM] | GI50 [4] [µM] | GI50 [5] [µM] | GI50 [8] [µM] | Log10LC50 mean graph midpoint (MG_MID) (human tumour cell lines) | Log10GI50 mean graph midpoint (MG_MID) (human tumour cell lines) | antiproliferative activity (human tumour cell lines) | Log10TGI50 mean graph midpoint (MG_MID) (human tumour cell lines) | ΔTm (° C.) after incubation at 37° C. for 0 h (calf thymus (CT) DNA) [°C] | ΔTm (° C.) after incubation at 37° C. for 18 h (calf thymus (CT) DNA) [°C] | ΔTm (° C.) after incubation at 37° C. for 36 h (calf thymus (CT) DNA) [°C] | Course of ΔTm over incubation at 0 hr, 18 hr and 36 hr (calf thymus (CT) DNA) | other results
COc1cc(C(=O)N2CCN(c3ccccn3)CC2)c(N)cc1OCc1ccccc1 [Compound 8b, [2-amino-4-(benzyloxy)-5-methoxyphenyl][4-(2-pyridyl)piperazino]methanone] | 6.76 | 5.62 | 6.76 | 5.75 | 4.57 | 5.89 | 16.6 | 5.5 | 1.78 | −4.05 | −5.62 | nanomolar to low micromolar concentrations | −5.12 | 1.5 | 2.1 | 2.6 | gradually increased | GI50 [1]: 10.3 µM; GI50 [6]: 19.2 µM; GI50 ([7]; MCF-7, breast cancer panel, unit inferred, read-out: growth (GI50)): 17.6 µM; GI50 [9]: 13.6 µM; GI50 (human tumour cell lines; fifty-five cell lines in nine cancer cell panels): < 10 µM; GI50 [10]: 12.4 µM; GI50 (HL-60 (TB) (leukemia)): 16.5 µM; GI50 [11]: 11.3 µM
COc1cc(C(=O)N2CCN(c3ncnc4ccccc34)CC2)c(N)cc1OCc1ccccc1 [Compound 8d, [2-amino-4-(benzyloxy)-5-methoxyphenyl][4-(4-quinazolinyl)piperazino]methanone] | 7.08 | 5.5 | 5.13 | 11.7 | 1.35 | 1.78 | 7.24 | 4.07 | 7.24 | −4.62 | −5.62 | nanomolar to low micromolar concentrations | −5.62 | 1.5 | 1.9 | 2.7 | gradually increased | GI50 [12]: 1.16 to 32.4 µM; GI50 [13]: 13.2 µM; GI50 [14]: 14.6 µM; GI50 [15]: 11.8 to 24.2 µM; GI50 ([7]; MCF-7, breast cancer cell panel, read-out: GI50): 12.6 µM; GI50 (human tumour cell lines; sixty cell lines in nine cell panels): < 20 µM; GI50 [16]: 16.3 µM; GI50 [17]: 11.2 µM
